These are literature values, as cited in US20100022576A1 (priority 2006, published 2010).

The conditions of data set [1]: in vivo.
A further data set relates to human mast cells. To be noted: in vitro.

With `Clc1ccc2c(c1)CCc1cccnc1C2=C1CCNCC1` [desloratadine], the “Effect of food and grapefruit juice on bioavailability” value in data set [1] was “Neither food nor grapefruit juice has an effect”. Besides, the “Release of histamine from human mast cells” value in the data set with human mast cells is reported as “inhibits release of histamine from human mast cells”.
